Columns and labels:
Format in all cases: cell-based, Chinese Hamster
[1] = system: Cell Line 1 (CHO) expressing Antibody 1; experiment: Cell culture performance (cell growth, viability, titer), Cell Line 1 shake flask fed-batch culture; details: for cell growth profile vs unsupplemented control: 3 concentrations in CDFM up to 0.5 g/L (genistein) or 1 g/L (rutin, naringin); for cell growth profile vs unsupplemented control / relative harvest titer vs unsupplemented control: shake flask
Method: (§1) A recombinant Chinese Hamster Ovary (CHO) cell line (Cell Line 1) expressing a humanized monoclonal antibody (Antibody 1) was evaluated in 2 different cultures vessels (shaker flasks and 3 L laboratory-scale bioreactors). The cell line was of CHO DUX-B11 origin based on a DHFR (dihydrofolate reductase) expression system and cultured in a chemically defined basal media, and fed periodically with a chemically-defined feed media (CDFM). The media utilized throughout all of the experiments were chemically-defined, and both animal-component free, and protein-free. Each of the respective media were supplemented as needed with selected bioflavonoids to evaluate for their potential impact on the resulting acidic species profile. In preparation of the cultures, the cell lines were serially expanded through separate seed train inoculums to generate enough cells for inoculation. Process conditions utilized during the cultures were slightly different depending on the culture scale, but similar within each scale to the respective non-bioflavonoid supplemented control conditions. All bioflavonoids utilized were purchased from Sigma-Aldrich (St. Louis, Mo.).
(§2) Viable cell density (VCD) and cell viability values were measured through trypan blue exclusion via Cedex automated cell counters (Roche Applied Science, Indianapolis, Ind.), glucose and lactate values were measured with a ABL-805 (Radiometer Medical, Denmark) blood gas analyzer. Offline pH, dissolved oxygen (DO), and pCO2 measurements were performed as needed with an ABL-805 (Radiometer Medical, Denmark) blood gas analyzer. Osmolality was measured as needed on a Multi-Osmette 2430 osmometer (Precision Systems, Natick, Mass.).
Antibody titers were measured from crude cell culture harvests on a Poros A™ (Life Technologies, Carlsbad, Calif.) affinity column using an HPLC system operating with a low pH, step elution gradient with detection at 280 nm. Absolute concentrations were assigned with respect to reference standard calibration curves.
(§3) In this Example, EGCG was added into the feed (cell culture medium) at the concentration range of 5 mg/L (low), 20 mg/L (mid) and 50 mg/L (high) in a shaker experiment to determine the impact of EGCG on product quality of a humanized monoclonal antibody (Antibody 1). Detailed cell culture conditions are as described in Table 1.
(§4) However, it was not clear whether or not additional bioflavonoids would also have the same effects. To evaluate the impact of alternative bioflavonoids, fed-batch shake flask cultures were initiated with CDFM supplemented with 3 different concentrations of genistein, rutin, and naringin, in addition to EGCG. Cell growth, viability, as well as titers and acidic species variants were measured.
(§5) To evaluate the impact of other bioflavonoids, fed-batch shake flask cultures were initiated with CDFM supplemented with multiple concentrations of rutin. Cell growth, viability, as well as titers and acidic species variants were measured and shown in FIGS. 14 and 15, respectively.

[2] = system: Cell Line 1 (CHO) expressing Antibody 1; experiment: Acidic species variants (WCX-10) of Antibody 1, Cell Line 1 shake flask fed-batch culture; details: shake flask
Method: as §1
(§6) Samples were analyzed using an HPLC system equipped with a ProPac WCX-10 analytical column (Thermo Scientific, Sunnyvale, Calif.). Approximately 100 μg of sample was loaded in 6% Buffer B (10 mM sodium phosphate, 500 mM NaCl, pH 5.5) and 94% Buffer A (10 mM sodium phosphate, pH 7.5). The column was run at a flow rate of 1.0 mL/min. The protein was eluted from the column by increasing the buffer B composition from 6% to 16% over 20 minutes. The protein peaks were measured using UV absorbance at 280 nm as the peaks eluted from the column. The column was regenerated using 100% buffer B followed be a re-equilibration period using initial condition before the injection of the next sample. Peaks eluting before the main peak were termed “acidic peaks” and peaks eluting after the main peak were called “basic peaks” (FIG. 2).
as §3, §4
(§7) Charge Heterogeneity via Weak Cation Exchange Chromatography-Samples were analyzed using an HPLC system equipped with a ProPac WCX-10 analytical column (Thermo Scientific, Sunnyvale, Calif.). Approximately 100 μg of sample was loaded in 6% Buffer B (10 mM sodium phosphate, 500 mM NaCl, pH 5.5) and 94% Buffer A (10 mM sodium phosphate, pH 7.5). The column was run at a flow rate of 1.0 mL/min. The protein was eluted from the column by increasing the buffer B composition from 6% to 16% over 20 minutes. The protein peaks were measured using UV absorbance at 280 nm as the peaks eluted from the column. The column was regenerated using 100% buffer B followed be a re-equilibration period using initial condition before the injection of the next sample. Peaks eluting before the main peak were termed ‘acidic peaks’ and peaks eluting after the main peak were called ‘basic peaks’ (FIG. 2).
as §5

[3] = system: Cell Line 1 (CHO) expressing Antibody 1; experiment: Acidic species variants (WCX-10) of Antibody 1, Cell Line 1 3 L bioreactor fed-batch culture; details: 0.1 g/L in CDFM, Day 15 harvest
Method: as §1, §6
In the next experiment, lab-scale bioreactors were used to (1) confirm the shaker experiment results and (2) to determine whether higher concentration range of EGCG is suitable for supplementing into cell culture. EGCG was added to the feed of the batch culture at the concentrations of 20 mg/L (mid), 50 mg/L (high) and 125 mg/L (high+) and 250 mg/L (high++) in this reactor experiment.
Cell Line 1 was evaluated in larger-scale feed batch cultures with the feed media supplemented with various bioflavonoids. […] By contrast, cell growth performance was slightly different for the 0.1 g/L EGCG supplemented condition. […] However, the cell viability remained high at 0.1 g/L EGCG. All cultures were successfully harvested on Day 15 post-inoculation. The harvest titers measured from the evaluated cultures were similar.
Cell Line 1 was also evaluated in laboratory-scale fedbatch cultures with the feed media supplemented with various bioflavonoids. […] Cell growth performance was slightly different however with the 0.1 g/L EGCG supplemented condition. […] All cultures were able to be successfully harvested on Day 15 post-inoculation.

[4] = system: Cell Line 4 (CHO) expressing DVD2
Method: (§8) Four different recombinant Chinese Hamster Ovary (CHO) cell lines expressing four different recombinant glycoproteins were evaluated in either shaker flask culture, or 3 L laboratory scale bioreactors. Cell Line 1 was genetically engineered to express Antibody 1, Cell Line 2 was genetically engineered to express Antibody 2, Cell Line 3 was genetically engineered to express dual variable domain immunoglobulin 1 (DVD1) and Cell Line 4 was genetically engineered to express dual variable domain immunoglobulin 2 (DVD2).
as §2, with “pCO2 (Dissolved carbon dioxide)” for “pCO2”
Protein A Affinity Chromatography-Antibody titers were measured from crude cell culture harvests on a Poros ATM (Life Technologies, Carlsbad, Calif.) affinity column using an HPLC system operating with a low pH, step elution gradient with detection at 280 nm. […]

[5] = system: Cell Line 4 (CHO) expressing DVD2; experiment: Acidic species variants (WCX-10), Cell Line 4 shake flask culture
Method: as §8
as §7, with “The column was regenerated using 100% buffer B followed be a re-equilibration period using initial condition before the injection of the next sample. Peaks eluting before the main peak were termed ‘acidic peaks’ and peaks eluting after the main peak were called ‘basic peaks’ (FIG. 2).” left out
as §5

## C[C@@H]1O[C@@H](O[C@H]2[C@H](Oc3cc(O)c4c(c3)O[C@H](c3ccc(O)cc3)CC4=O)O[C@H](CO)[C@@H](O)[C@@H]2O)[C@H](O)[C@H](O)[C@H]1O [naringin]
[1]
  cell growth profile vs unsupplemented control: lower than the unsupplemented control condition

## C[C@@H]1O[C@@H](OC[C@H]2O[C@@H](Oc3c(-c4ccc(O)c(O)c4)oc4cc(O)cc(O)c4c3=O)[C@H](O)[C@@H](O)[C@@H]2O)[C@H](O)[C@H](O)[C@H]1O [rutin]
[2]; 0.1 g/L in CDFM
  ratio of acidic region to unsupplemented control: 0.97
[2]; 1 g/L in CDFM
  ratio of acidic region to unsupplemented control: 0.65
[1]
  concentration above which peak viable cell density dropped lower than unsupplemented control: higher than 0.05 g/L
[1]; 0.01 g/L in CDFM
  relative harvest titer vs unsupplemented control: 0.98
[1]; 0.1 g/L in CDFM
  relative harvest titer vs unsupplemented control: 0.93
[1]; 1 g/L in CDFM, statistically significant
  relative harvest titer vs unsupplemented control: 0.78
[1]; CDFM supplemented to 1 g/L, Cell Line 1
  drop in harvest titer: at most 22%
[1]; Chinese hamster, 1 g/L
  harvest cell viability: 76%
[3]; 3 L bioreactor
  drop in absolute acidic species percentage points: 5%
[3]; bioreactor
  relative total AR (ratio to Day 8 value of unsupplemented control): 1.00
[4]
  concentration above which peak viable cell density dropped lower than unsupplemented control: > 100 µg/mL
[4]; CDFM supplemented to 1 g/L, Cell Line 4
  increase in harvest titer: 9%
[5]; 0.1 g/L in CDFM
  ratio of acidic region to unsupplemented control: 0.75
[5]; 1 g/L in CDFM
  ratio of acidic region to unsupplemented control: 0.69

## O=c1c(-c2ccc(O)cc2)coc2cc(O)cc(O)c12 [genistein]
[1]
  cell growth profile vs unsupplemented control: lower than the unsupplemented control condition

Reference: patent US9416181B2, “Compositions for cell culture and methods of using the same” (AbbVie Inc., priority 2013, dated 2016)
